This is an account of results in patent US5686472A, “Inhibitors of farnesyl-protein transferase” (Merck & Co., Inc., priority 1993, dated 1997).

Molecules are shown by their SMILES.

The target in the first data set is recombinant human farnesyl transferase (Homo sapiens, UniProt P49354+P49356). The data set is described as follows: In vitro inhibition of ras farnesyl transferase. To be noted: concentration of test compound giving 50% inhibition of FTase, Table 1, read-out: IC50 (inhibition of RAS farnesylation). The data set is classed as biochemical. The protocol: In vitro inhibition of ras farnesyl transferase
The assay was conducted as described in Pompliano, et. al., Biochemistry 31, 3800 (1992) with the exception of utilizing recombinant human farnesyl transferase in place of the partially purified bovine enzyme described therein.
*(IC50 is the concentration of the test compound which gives 50%
inhibition of FTase under the described assay conditions.
Take `C=CC[C@H](OC[C@@H](NC[C@@H](N)CS)[C@@H](C)CC)C(=O)N[C@@H](CCO)C(=O)O`: the IC50 (in general, the concentration that inhibits the measured activity by half) was found to be 0.018 µM.
Still for that read-out and setting: in the case of `CC[C@H](C)[C@@H](CO[C@@H](Cc1ccccc1)C(=O)N[C@@H](CCS(C)(=O)=O)C(=O)O)NC[C@@H](N)CS` [2(S)-[2(S)-[2(R)-Amino-3-mercapto]propylamino-3(S)-methyl]-pentyloxy-3-phenylpropionyl-methionine sulfone] it was 0.0022 µM.
On the same count and under the same terms, in the case of `CCC[C@H](OC[C@@H](NC[C@@H](N)CS)[C@@H](C)CC)C(=O)N[C@@H](CCO)C(=O)O` [2(S)-[2(S)-[2(R)-Amino-3-mercapto]propylamino-3(S)-methyl]-pentyloxy-pentanoyl-homoserine] it was 0.007 µM.
Still for that read-out and setting: in the case of `CC[C@H](C)[C@@H](CS(=O)(=O)[C@@](C)(Cc1ccccc1)C(=O)N[C@@H](CCO)C(=O)O)NC[C@@H](N)CS` [2(S)-[2(S)-[2(R)-Amino-3-mercapto]propylamino-3(S)-methyl]pentyl-sulfonyl-2-methyl-3-phenylpropionyl-homo-serine] it was 0.98 µM.
Turning to `CC[C@H](C)[C@@H](CO[C@@](C)(Cc1ccccc1)C(=O)N[C@@H](CCO)C(=O)O)NC[C@@H](N)CS` [2(S)-[2(S)-[2(R)-Amino-3-mercapto]propylamino-3(S)-methyl]pentyloxy-2-methyl-3-phenylpropionyl-homoserine], the IC50 was determined as 0.007 µM.
Consider `CC[C@H](C)[C@@H](CO[C@H](C(=O)N[C@@H](CCO)C(=O)O)C(C)C)NC[C@@H](N)CS` [2(S)-[2(S)-[2(R)-Amino-3-mercapto]propylamino-3(S)-methyl]pentyloxy-3-methylbutanoyl-homoserine], for which the IC50 came out at 0.0014 µM.
Regarding `CC[C@H](C)[C@@H](CO[C@H](C(=O)N[C@@H](CCO)C(=O)O)C(C)c1ccccc1)NC[C@@H](N)CS` (stereo partly drawn) [2(S)-[2(S)-[2(R)-Amino-3-mercapto]propylamino-3(S)-methyl]pentyloxy-3-phenylbutanoyl-homoserine], the IC50 turned out to be 0.017 µM.
The same measure, in the same setting: in the case of `CC[C@H](C)[C@@H](CO[C@@H](Cc1ccccc1)C(=O)N[C@@H](CCO)C(=O)O)NC[C@@H](N)CS` [2(S)-[2(S)-[2(R)-Amino-3-mercapto]propylamino-3(S)-methyl]pentyloxy-3-phenylpropionyl-homoserine] it was 0.005 µM; in that of `CC[C@H](C)[C@@H](CO[C@@H](Cc1ccccc1)C(=O)N[C@@H](CCSC)C(=O)O)NC[C@@H](N)CS` [2(S)-[2(S)-[2(R)-Amino-3-mercapto]propylamino-3(S)-methyl]pentyloxy-3-phenylpropionyl-methionine], 0.004 µM; in that of `CC[C@H](C)[C@@H](CO[C@@H](CC(C)C)C(=O)N[C@@H](CCO)C(=O)O)NC[C@@H](N)CS` [2(S)-[2(S)-[2(R)-Amino-3-mercapto]propylamino-3(S)-methyl]pentyloxy-4-methylpentanoyl-homoserine], 0.019 µM.
For the molecule `CC[C@H](C)[C@@H](CS[C@@](C)(Cc1ccccc1)C(=O)N[C@@H](CCO)C(=O)O)NC[C@@H](N)CS` [2(S)-[2(S)-[2(R)-Amino-3-mercapto]propylamino-3(S)-methyl]pentylthio-2-methyl-3-phenylpropionyl-homoserine], the IC50 came out at 0.24 µM.

Test system in another data set: not listed separately
The data set is described as follows: Observation on the isolated TFA salt (hygroscopicity, stability in solution).
Details: not given
The data set is classed as physicochemical.
Consider `CC[C@H](C)[C@@H](CO[C@@H](Cc1ccccc1)C(=O)N[C@H]1CCOC1=O)NC[C@@H](N)CS` [2(S)-[2(S)-[2(R)-Amino-3-mercapto]propylamino-3(S)-methyl]pentyloxy-3-phenylpropionyl-homoserine lactone], for which the hygroscopicity result was “hygroscopic”.

Staying with this data set, now noted: left in solution and exposed to air.
On to `CC[C@H](C)[C@@H](CO[C@@H](Cc1ccccc1)C(=O)N[C@H]1CCOC1=O)NC[C@@H](N)CS` [2(S)-[2(S)-[2(R)-Amino-3-mercapto]propylamino-3(S)-methyl]pentyloxy-3-phenylpropionyl-homoserine lactone], for which the “stability (disulphide formation)” value is “prone to disulphide formation if left in solution and exposed to air”.

The subject of the next data set is RAS farnesylation in the v-ras cell line. The data set is described as follows: In vivo ras farnesylation assay (inhibition of RAS farnesylation in the v-ras cell line). To be noted: 4 h at 37° C. before labelling, additional 20 h, Table 2. The data set is classed as cell-based. The protocol: In vivo ras farnesylation assay
The cell line used in this assay was the v-ras line, which expressed viral Ha-ms p21. The assay was performed essentially as described in DeClue, J. E. et. al., Cancer Research 51, 712-717, (1991). Cells in 10 cm dishes at 50-75% confluency were treated with the test compound (final concentration of solvent, methanol or dimethyl sulfoxide, was 0.1%). After 4 hours at 37° C., the cells were labelled in 3 ml methionine-free DMEM supplemented with 10% regular DMEM, 2% fetal bovine serum and 400 μCi[^35 S]methionine (1000 Ci/mmol). After an additional 20 hours, the cells were lysed in 1 ml lysis buffer (1% NP40/20 mM HEPES, pH 7.5/5 mM Mg/Cl2 /1mM DTT/10 μg/ml aprotinen/2 μg/ml leupeptin/2 μg/ml antipain/0.5 mM PMSF) and the lysates cleared by centrifugation at 100,000×g for 45 minutes. Aliquots of lysates containing equal numbers of acid-precipitable counts were bought to 1 ml with IP buffer (lysis buffer lacking DTT) and immunoprecipitated with the ras-specific monoclonal antibody Y13-259 (Furth, M. E. et. al., J. Virol. 43, 294-304, (1982)). Following a 2 hour antibody incubation at 4° C., 200 μl of a 25% suspension of protein A-Sepharose coated with rabbit anti rat IgG was added for 45 minutes. The immunoprecipitates were washed four times with IP was buffer ([…] HEPES, pH 7.5/1 mN EDTA/1% Triton X-100.0.5% deoxycholate/0.1%/SDS.0.1M NaCl) boiled in SDS-Page sample buffer and loaded on 13% acrylamide gels. When the dye front reached the bottom, the gel was fixed, soaked in Enlightening, dried and autoradiographed. The intensities of the bands corresponding to farnesylated and nonfarnesylated ras proteins were compared to determine the percent inhibition of farnesyl transfer to protein.
Consider `CC[C@H](C)[C@@H](CO[C@@H](Cc1ccccc1)C(=O)N[C@@H](CCS(C)(=O)=O)C(=O)OC(C)C)NC[C@@H](N)CS` [2(S)-[2(S)-[2(R)-Amino-3-mercapto]-propylamino-3(S)-methyl]pentyloxy-3-phenylpropionyl-methionine sulfone isopropyl ester], for which the IC50 was 0.1 µM.
As for `C=CC[C@H](OC[C@@H](NC[C@@H](N)CS)[C@@H](C)CC)C(=O)N[C@H]1CCOC1=O` [2(S)-[2(S)-[2(R)-Amino-3-mercapto]propylamino-3(S)-methyl]-pentyloxy-4-pentenoyl-homoserine lactone], half-maximal inhibition (IC50) was put at 10 µM.
`CC[C@H](C)[C@@H](CO[C@@H](CC(C)C)C(=O)N[C@H]1CCOC1=O)NC[C@@H](N)CS` [2(S)-[2(S)-[2(R)-Amino-3-mercapto]propylamino-3(S)-methyl]pentyloxy4-methylpentanoyl-homoserine lactone] had a 50% inhibitory concentration (IC50) of 10 µM.
On the same count and under the same terms, the value for `CC[C@H](C)[C@@H](CO[C@@](C)(Cc1ccccc1)C(=O)N[C@H]1CCOC1=O)NC[C@@H](N)CS` [2(S)-[2(S)-[2(R)-Amino-3-mercapto]propylamino-3(S)-methyl]pentyloxy-2-methyl-3-phenylpropionyl-homoserine lactone] was 50 µM; that for `CC[C@H](C)[C@@H](CO[C@@H](Cc1ccccc1)C(=O)N[C@H]1CCOC1=O)NC[C@@H](N)CS` [2(S)-[2(S)-[2(R)-Amino-3-mercapto]propylamino-3(S)-methyl]pentyloxy-3-phenylpropionyl-homoserine lactone] was 2.5 µM; that for `CC[C@H](C)[C@@H](CO[C@@H](Cc1ccccc1)C(=O)N[C@@H](CCSC)C(=O)OC)NC[C@@H](N)CS` [2(S)-[2(S)-[2(R)-Amino-3-mercapto]propylamino-3(S)-methyl]pentyloxy-3-phenylpropionyl-methionine methyl ester] was 0.1 µM.
`CC[C@H](C)[C@@H](CO[C@@H](Cc1ccccc1)C(=O)N[C@@H](CCS(C)(=O)=O)C(=O)OC)NC[C@@H](N)CS` [2(S)-[2(S)-[2(R)-Amino-3-mercapto]propylamino-3(S)-methyl]pentyloxy-3-phenylpropionyl-methionine sulfone methyl ester] registered an IC50 of 0.1 µM.
The same measure, in the same setting: the value for `CCC[C@H](OC[C@@H](NC[C@@H](N)CS)[C@@H](C)CC)C(=O)N[C@H]1CCOC1=O` [2(S)-[2(S)-[2(R)-Amino-3-mercapto]propylamino-3(S)-methyl]pentyloxy-pentanoyl-homoserine lactone] was 10 µM.
